# Measured values: patent publication US20260327191A1, “GSK3a INHIBITORS AND METHODS OF USE THEREOF” (Blueprint Medicines Corporation, priority 2023, published 2026)
# Where a name gives a salt, the structure may show the parent alone.
# Experiments:
# GSK3A = molecular target: T1, GSK3A (Homo sapiens, UniProt P49840); test: NanoBRET cellular target engagement assay, Nanoluc-GSK3A in HEK293 cells; assay type: cell-based; conditions: NanoBRET GSK3α IC50, HEK293 cells, tracer K-8, 2 hours, 37° C
# T1 construct: expressed in transfected cells
# GSK3B [1] = molecular target: T2, GSK3B (Homo sapiens, UniProt P49841); test: In vitro enzymatic activity assay, GSK3β; assay type: biochemical; design: Full length human GSK3α or GSK3B expressed as N-terminal GST fusion proteins; GST (N); purchased Carna Biosciences (Japan); host or cells: baculovirus host; conditions: 1.0 mM ATP, 1.0 μM peptide substrate, 120 min, 25° C, read-out: Enzyme GSK3β (IC50)
# GSK3B [2] = molecular target: T2, GSK3B; test: NanoBRET cellular target engagement assay, Nanoluc-GSK3B in HEK293 cells; assay type: cell-based; design: expressed in transfected cells; conditions: NanoBRET GSK3β IC50, HEK293 cells, tracer K-8, 2 hours, 37° C
# human GSK3α = molecular target: T3, human GSK3α (Homo sapiens, UniProt P49840); test: In vitro enzymatic activity assay, GSK3α; assay type: biochemical; conditions: 1.0 mM ATP, 1.0 μM peptide substrate, 120 min, 25° C, read-out: Enzyme GSK3α (IC50)
# T3 construct: Full length human GSK3α or GSK3B expressed as N-terminal GST fusion proteins; GST (N); purchased Carna Biosciences (Japan); host or cells: baculovirus host
# T3 sequence (P49840 whole entry, the tested form may be a part): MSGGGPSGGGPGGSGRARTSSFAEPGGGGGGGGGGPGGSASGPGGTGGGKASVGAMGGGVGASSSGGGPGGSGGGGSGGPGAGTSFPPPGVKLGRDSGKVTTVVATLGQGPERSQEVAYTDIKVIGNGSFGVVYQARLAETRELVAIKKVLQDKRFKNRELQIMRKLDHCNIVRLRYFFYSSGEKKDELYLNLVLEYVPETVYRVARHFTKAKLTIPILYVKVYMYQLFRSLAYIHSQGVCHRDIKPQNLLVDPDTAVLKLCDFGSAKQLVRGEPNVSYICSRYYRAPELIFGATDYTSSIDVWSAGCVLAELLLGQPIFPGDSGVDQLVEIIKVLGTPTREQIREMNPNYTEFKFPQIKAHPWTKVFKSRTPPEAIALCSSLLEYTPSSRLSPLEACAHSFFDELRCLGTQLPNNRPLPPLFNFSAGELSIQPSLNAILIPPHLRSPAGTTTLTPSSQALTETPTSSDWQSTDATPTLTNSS
# T1 sequence (P49840 whole entry): as the sequence (P49840 whole entry, the tested form may be a part) above
# T2 sequence (P49841 whole entry, the tested form may be a part): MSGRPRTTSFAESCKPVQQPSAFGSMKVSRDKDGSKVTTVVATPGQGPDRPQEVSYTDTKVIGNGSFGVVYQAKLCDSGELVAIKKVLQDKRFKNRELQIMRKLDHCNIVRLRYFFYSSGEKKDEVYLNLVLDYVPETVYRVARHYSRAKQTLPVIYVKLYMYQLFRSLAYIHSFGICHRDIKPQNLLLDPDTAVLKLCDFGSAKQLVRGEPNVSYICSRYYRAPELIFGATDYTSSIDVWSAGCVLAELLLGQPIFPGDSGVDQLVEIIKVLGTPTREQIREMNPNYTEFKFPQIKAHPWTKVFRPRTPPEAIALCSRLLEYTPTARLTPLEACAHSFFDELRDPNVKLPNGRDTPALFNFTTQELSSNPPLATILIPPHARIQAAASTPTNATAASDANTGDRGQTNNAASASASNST
IC50 (GSK3A) [nM],IC50 (GSK3B [1]) [nM],IC50 (GSK3B [2]) [nM],IC50 (human GSK3α) [nM],SMILES
7.6,272,520,4.7,"COc1cc(Cl)c(-n2cnc(N)c(C(=O)Nc3cncc(C4COCCN4)c3)c2=O)c(Cl)c1 (single isomer, unassigned) [Example 212, (S)-4-amino-1-(2,6-dichloro-4-methoxyphenyl)-N-(5-(morpholin-3-yl)pyridin-3-yl)-6-oxo-1,6-dihydropyrimidine-5-carboxamide or (R)-4-amino-1-(2,6-dichloro-4-methoxyphenyl)-N-(5-(morpholin-3-yl)pyridin-3-yl)-6-oxo-1,6-dihydropyrimidine-5-carboxamide]"
7.8,1760,992,33.2,"COc1cc(Cl)c(-n2cnc(N)c(C(=O)Nc3cncc([C@@H]4CCN4)c3)c2=O)c(Cl)c1 (single isomer, unassigned) [Example 213, (S)-4-amino-N-(5-(azetidin-2-yl)pyridin-3-yl)-1-(2,6-dichloro-4-methoxyphenyl)-6-oxo-1,6-dihydropyrimidine-5-carboxamide or (R)-4-amino-N-(5-(azetidin-2-yl)pyridin-3-yl)-1-(2,6-dichloro-4-methoxyphenyl)-6-oxo-1,6-dihydropyrimidine-5-carboxamide]"
8.9,930,640,17.3,"COc1cc(Cl)c(-n2cnc(N)c(C(=O)Nc3cncc([C@@H]4C[C@@H](C)N4)c3)c2=O)c(Cl)c1 (single isomer, unassigned) [Example 214, 4-amino-1-(2,6-dichloro-4-methoxyphenyl)-N-(5-((2S,4R)-4-methylazetidin-2-yl)pyridin-3-yl)-6-oxo-1,6-dihydropyrimidine-5-carboxamide formate or 4-amino-1-(2,6-dichloro-4-methoxyphenyl)-N-(5-((2R,4S)-4-methylazetidin-2-yl)pyridin-3-yl)-6-oxo-1,6-dihydropyrimidine-5-carboxamide formate]"
8.5,500,690,7.2,"Nc1ncn(-c2c(Cl)cccc2Cl)c(=O)c1C(=O)Nc1cncc([C@H]2CCOCCN2)c1 (single isomer, unassigned) [Example 215, (R)—N-(5-(1,4-oxazepan-5-yl)pyridin-3-yl)-4-amino-1-(2,6-dichlorophenyl)-6-oxo-1,6-dihydropyrimidine-5-carboxamide or (S)—N-(5-(1,4-oxazepan-5-yl)pyridin-3-yl)-4-amino-1-(2,6-dichlorophenyl)-6-oxo-1,6-dihydropyrimidine-5-carboxamide]"
8,305,424,7.8,"Cc1cccc(Cl)c1-n1cnc(N)c(C(=O)Nc2cccc([C@@H]3CCCN3)c2F)c1=O (single isomer, unassigned) [Example 217, (S)-4-amino-1-((S)-2-chloro-6-methylphenyl)-N-(2-fluoro-3-(pyrrolidin-2-yl)phenyl)-6-oxo-1,6-dihydropyrimidine-5-carboxamide or (R)-4-amino-1-((S)-2-chloro-6-methylphenyl)-N-(2-fluoro-3-(pyrrolidin-2-yl)phenyl)-6-oxo-1,6-dihydropyrimidine-5-carboxamide]"
5.6,421,401,10.8,"CCc1cc(C)c(-n2cnc(N)c(C(=O)Nc3cncc([C@@H](C)N)c3)c2=O)c(C)c1 (single isomer, unassigned) [Example 218, (R)-4-amino-N-(5-(1-aminoethyl)pyridin-3-yl)-1-(4-ethyl-2,6-dimethylphenyl)-6-oxo-1,6-dihydropyrimidine-5-carboxamide or (S)-4-amino-N-(5-(1-aminoethyl)pyridin-3-yl)-1-(4-ethyl-2,6-dimethylphenyl)-6-oxo-1,6-dihydropyrimidine-5-carboxamide]"
3.8,271,187,5.4,"CCOc1cc(Cl)c(-n2cnc(N)c(C(=O)Nc3cncc([C@@H](C)N)n3)c2=O)c(Cl)c1 (single isomer, unassigned) [Example 219, (R)-4-amino-N-(6-(1-aminoethyl)pyrazin-2-yl)-1-(2,6-dichloro-4-ethoxyphenyl)-6-oxo-1,6-dihydropyrimidine-5-carboxamide or (S)-4-amino-N-(6-(1-aminoethyl)pyrazin-2-yl)-1-(2,6-dichloro-4-ethoxyphenyl)-6-oxo-1,6-dihydropyrimidine-5-carboxamide]"
4.6,99.2,148,2.1,"COc1cc(Cl)c(-n2cnc(N)c(C(=O)Nc3cc(F)cc([C@H]4CCCCN4)c3)c2=O)c(Cl)c1 (single isomer, unassigned) [Example 222, (R)-4-amino-1-(2,6-dichloro-4-methoxyphenyl)-N-(3-fluoro-5-(piperidin-2-yl)phenyl)-6-oxo-1,6-dihydropyrimidine-5-carboxamide or (S)-4-amino-1-(2,6-dichloro-4-methoxyphenyl)-N-(3-fluoro-5-(piperidin-2-yl)phenyl)-6-oxo-1,6-dihydropyrimidine-5-carboxamide]"
6.2,378,383,8.3,"CCNCc1cncc(NC(=O)c2c(N)ncn(-c3c(Cl)cccc3Cl)c2=O)c1 [Example 5, 4-amino-1-(2,6-dichlorophenyl)-N-(5-((ethylamino)methyl)pyridin-3-yl)-6-oxo-1,6-dihydropyrimidine-5-carboxamide]"
6.5,292,352,7.2,"CN[C@H](C)c1cc(F)cc(NC(=O)c2c(N)ncn(-c3c(Cl)cccc3Cl)c2=O)c1 [Example 6, (R)-4-amino-1-(2,6-dichlorophenyl)-N-(3-fluoro-5-(1-(methylamino)ethyl)phenyl)-6-oxo-1,6-dihydropyrimidine-5-carboxamide trifluoroacetate]"
6.9,395,371,8.8,"CCNCc1cncc(NC(=O)c2c(N)ncn(-c3c(Cl)cc(OC(F)F)cc3Cl)c2=O)c1 [Example 10, 4-amino-1-(2,6-dichloro-4-(difluoromethoxy)phenyl)-N-(5-((ethylamino)methyl)pyridin-3-yl)-6-oxo-1,6-dihydropyrimidine-5-carboxamide]"
4,318,231,6.4,"CCNCc1cncc(NC(=O)c2c(N)ncn(-c3c(Cl)cc(C(F)F)cc3Cl)c2=O)c1 [Example 14, 4-amino-1-(2,6-dichloro-4-(difluoromethyl)phenyl)-N-(5-((ethylamino)methyl)pyridin-3-yl)-6-oxo-1,6-dihydropyrimidine-5-carboxamide]"
2.2,208,119,4.5,"COCc1cc(Cl)c(-n2cnc(N)c(C(=O)Nc3cncc(C(C)(C)N)c3)c2=O)c(Cl)c1 [Example 15, 4-amino-N-(5-(2-aminopropan-2-yl)pyridin-3-yl)-1-(2,6-dichloro-4-(methoxymethyl)phenyl)-6-oxo-1,6-dihydropyrimidine-5-carboxamide]"
3.8,340,271,7.8,"CCNCc1cncc(NC(=O)c2c(N)ncn(-c3c(Cl)cc(OC)cc3Cl)c2=O)c1 [Example 17, 4-amino-1-(2,6-dichloro-4-methoxyphenyl)-N-(5-((ethylamino)methyl)pyridin-3-yl)-6-oxo-1,6-dihydropyrimidine-5-carboxamide]"
7.2,685,396,14,"COc1cc(Cl)c(-n2cnc(N)c(C(=O)Nc3cncc(CNC(C)C)c3)c2=O)c(Cl)c1 [Example 20, 4-amino-1-(2,6-dichloro-4-methoxyphenyl)-N-(5-((isopropylamino)methyl)pyridin-3-yl)-6-oxo-1,6-dihydropyrimidine-5-carboxamide]"
2.6,217,145,3.2,"COc1cc(Cl)c(-n2cnc(N)c(C(=O)Nc3cncc(C4(N)CCCC4)c3)c2=O)c(Cl)c1 [Example 21, 4-amino-N-(5-(1-aminocyclopentyl)pyridin-3-yl)-1-(2,6-dichloro-4-methoxyphenyl)-6-oxo-1,6-dihydropyrimidine-5-carboxamide]"
5.6,389,334,8.4,"CCNCc1cncc(NC(=O)c2c(N)ncn(-c3c(Cl)cc(C(F)(F)F)cc3Cl)c2=O)c1 [Example 22, 4-amino-1-(2,6-dichloro-4-(trifluoromethyl)phenyl)-N-(5-((ethylamino)methyl)pyridin-3-yl)-6-oxo-1,6-dihydropyrimidine-5-carboxamide]"
4.3,343,239,5,"Nc1ncn(-c2c(Cl)cc(C(F)(F)F)cc2Cl)c(=O)c1C(=O)Nc1cncc(CNCCO)c1 [Example 23, 4-amino-1-(2,6-dichloro-4-(trifluoromethyl)phenyl)-N-(5-(((2-hydroxyethyl)amino)methyl)pyridin-3-yl)-6-oxo-1,6-dihydropyrimidine-5-carboxamide]"
